Results: patent US9521847B2, “Synergistic weed control from applications of pyridine carboxylic acid herbicides and synthetic auxin herbicides and/or auxin transport inhibitors” (Dow AgroSciences LLC, priority 2014, dated 2016)
Where two headings read alike, the source gives them in different places.

Legend:
[1] = system: common rice (ORYSA); conditions: in vivo
[2] = system: spring wheat (TRZAS); test: Small plot field trial (Canada), crop phytotoxicity (% visual injury); format: in vivo, Triticum aestivum; conditions: 560 g ae/ha alone
Source text: Small plot field trials were established in Canada to evaluate efficacy and crop safety of Compound 7 with 2,4-D EHE. Trials were established as randomized complete blocks with 3-4 replicates. Individual plots were 2-3 meters (m) wide and 8-10 m long. Applications were made with backpack or tractor-mounted sprayers delivering a spray volume output of 100 liters per hectare (L/ha) using pressurized carbon dioxide (CO2) as a propellant. Compound 7 was combined with 2,4 D EHE (660 g ae/L EC formulation) and applied to spring wheat (TRZAS), and the phytotoxicity of the herbicidal compositions was measured. In addition, the efficacy of the herbicidal composition on Canadian thistle ([…], Cirsium arvense), kochia (KCHSC, Kochia scoparia), mallow (MALPU, Marva pusilla), wild buckwheat (POLCO, Polygonum convolvulus), and lady's thumb (POLPE, Polygonum persicaria) was evaluated.

[3] = system: Canadian thistle (CIRAR, Cirsium arvense); test: Greenhouse postemergence trial, % visual injury; conditions: Cirsium arvense, post-emergence;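 further: plants sprayed at second to third true leaf stage, injury scored visually 20-22 d later against solvent-blank sprayed controls, 0 meaning no injury and 100 complete kill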
[4] = system: wild buckwheat (Polygonum convolvulus, POLCO); test: Greenhouse postemergence trial, % visual injury; format: in vivo
[5] = system: velvetleaf (Abutilon theophrasti, ABUTH); test: Greenhouse postemergence trial, % visual injury; format: in vivo; conditions: 140 g ae/ha alone; 20-22 d
[6] = system: pigweed (AMARE, Amaranthus retroflexus); test: Greenhouse postemergence trial, % visual injury; format: in vivo; conditions: for % visual injury, Obs: AMARE
[7] = system: winter rape (BRSNW, Brassica napus); test: Greenhouse postemergence trial, % visual injury; format: in vivo
[8] = system: wild mustard (Sinapis arvensis, SINAR); test: Greenhouse postemergence trial, % visual injury; format: in vivo
[9] = system: sunflower (Helianthus annus, HELAN); test: Greenhouse postemergence trial, % visual injury; format: in vivo; conditions: 140 g ae/ha alone; 20-22 d
[10] = system: ivyleaf morningglory (Ipomoea hederacea, IPOHE); test: Greenhouse postemergence trial, % visual injury; conditions: Ipomoea, post-emergence, read-out: % visual injury, Obs, IPOHE, 140 g ae/ha
[11] = system: Russian thistle (Salsola iberica, SASKR); test: Greenhouse postemergence trial, % visual injury; format: in vivo
[12] = system: maize (ZEAMX); conditions: in vivo
[13] = system: kochia (KCHSC, Kochia scoparia); test: Greenhouse postemergence trial, % visual injury; format: in vivo
Experimental: Following the protocol in Example 1, compound 1 and compound 2 were combined with 2,4 D EHE (EC) and applied to kochia (KCHSC, Kochia scoparia) and the phytotoxicity of the herbicidal compositions was measured.
Following the protocol in Example 1, compound 1 (EC) and Compound 2 (SC) were combined with diflufenzopyr and applied to kochia (Kochia scoparia, KCHSC) and the phytotoxicity of the herbicidal composition was measured.

[14] = system: nutsedge (Cyperus esculentus, CYPES); test: Greenhouse postemergence trial, % visual injury; format: in vivo
[15] = system: grain sorghum (Sorghum vulgare, SORVU); test: Greenhouse postemergence trial, % visual injury; format: in vivo
[16] = system: spring rape (Brassica napus, BRSNN); test: Greenhouse postemergence trial, % visual injury; conditions: Brassica napus, post-emergence
[17] = system: spring barley (HORVS); conditions: in vivo
[18] = system: poinsettia (Euphorbia heterophylla, EPHHL); test: Greenhouse postemergence trial, % visual injury; conditions: for pest or weed control at 140 g/ha: Euphorbia heterophylla, post-emergence
[19] = system: wild pansy (Viola tricolor, VIOTR); test: Greenhouse postemergence trial, % visual injury
[20] = system: common lambsquarters (CHEAL, Chenopodium album L.); test: Greenhouse postemergence trial, % visual injury; format: in vivo; conditions: Chenopodium album, post-emergence; 140 g ae/ha alone; 20-22 d; read-out: % visual injury Obs
[21] = system: common chickweed (Stellaria media, STEME); test: Greenhouse postemergence trial, % visual injury; format: in vivo
[22] = read-out: % visual injury (Obs)
[23] = Hordeum vulgare (spring barley)

Question: `CCCCC(CC)COC(=O)COc1ccc(Cl)cc1Cl` (stereo not shown) [2,4-D EHE, 2-ethylhexyl (2,4-dichlorophenoxy)acetate, reference compound] was tested. Which “% visual injury (Obs)” value [1] did it give?
Answer: 0%

Question: What about the “% visual injury, Obs” value [1] of the same compound?
Answer: 10%

Question: What about the “% visual injury Obs” value ([2]; 6-8 DAA) of the same compound?
Answer: 3%

Question: And the “% visual injury Obs” value ([2]; 14-16 DAA)?
Answer: 0%

Question: What about the pest or weed control at 140 g/ha [3, 22] of the same compound?
Answer: 50%

Question: What about the pest or weed control at 400 g/ha [3, 22] of the same compound?
Answer: 70%

Question: And the pest or weed control at 140 g/ha ([3]; read-out: % visual injury Obs)?
Answer: 50%

Question: And the pest or weed control at 280 g/ha ([3]; read-out: % visual injury Obs)?
Answer: 73%

Question: What about the “% visual injury (Obs)” value ([4]; 2,4-D EHE 400 g ae/ha) of the same compound?
Answer: 80%

Question: And the “% visual injury (Obs)” value ([4]; 2,4-D EHE 420 g ae/ha)?
Answer: 60%

Question: What about the “% visual injury Obs” value ([4]; 140 g ae/ha alone, 20-22 d) of the same compound?
Answer: 55%

Question: And the “% visual injury Obs” value [5]?
Answer: 55%

Question: What about the “% visual injury, Obs” value ([6]; 140 g ae/ha) of the same compound?
Answer: 75%

Question: And the “% visual injury, Obs” value ([6]; 400 g ae/ha)?
Answer: 80%

Question: And the pest or weed control at 140 g/ha ([6]; Amaranthus retroflexus, post-emergence, 140 g ae/ha alone, 20-22 d, read-out: % visual injury Obs)?
Answer: 95%

Question: And the pest or weed control at 280 g/ha ([6]; Amaranthus retroflexus, post-emergence, 280 g ae/ha alone, 20-22 d, read-out: % visual injury Obs)?
Answer: 30%

Question: What about the “% visual injury (Obs)” value ([7]; 2,4-D EHE 400 g ae/ha) of the same compound?
Answer: 93%

Question: What about the “% visual injury Obs” value ([7]; 280 g ae/ha alone, 20-22 d) of the same compound?
Answer: 85%

Question: What about the “% visual injury, Obs” value ([7]; BRSNW, 400 g ae/ha) of the same compound?
Answer: 93%

Question: And the “% visual injury (Obs)” value ([8]; 2,4-D EHE 400 g ae/ha)?
Answer: 97%

Question: What about the “% visual injury, Obs” value ([8]; SINAR, 400 g ae/ha) of the same compound?
Answer: 97%

Question: And the “% visual injury Obs” value [9]?
Answer: 75%

Question: What about the pest or weed control at 140 g/ha [10] of the same compound?
Answer: 93%

Question: And the “% visual injury (Obs)” value ([11]; 2,4-D EHE 400 g ae/ha)?
Answer: 70%

Question: And the “% visual injury, Obs” value ([11]; SASKR, 400 g ae/ha)?
Answer: 70%

Question: And the “% visual injury Obs” value ([12]; Zea mays (maize))?
Answer: 0%

Question: And the “% visual injury (Obs)” value ([12]; maize (Zea mays))?
Answer: 0%

Question: And the “% visual injury, Obs” value ([12]; maize (Zea mays))?
Answer: 0%

Question: What about the “% visual injury (Obs)” value ([13]; 2,4-D EHE 400 g ae/ha) of the same compound?
Answer: 10%

Question: What about the “% visual injury Obs” value ([13]; 280 g ae/ha alone, 20-22 d) of the same compound?
Answer: 10%

Question: And the pest or weed control at 400 g/ha ([13]; Bassia scoparia, post-emergence, KCHSC, 400 g ae/ha, read-out: % visual injury, Obs)?
Answer: 50%

Question: What about the “% visual injury (Obs)” value ([14]; 2,4-D EHE 140 g ae/ha) of the same compound?
Answer: 0%

Question: And the “% visual injury, Obs” value ([14]; CYPES, 140 g ae/ha)?
Answer: 10%

Question: What about the pest or weed control at 140 g/ha ([14]; Cyperus, post-emergence, 140 g ae/ha alone, 20-22 d, read-out: % visual injury Obs) of the same compound?
Answer: 0%

Question: What about the “% visual injury (Obs)” value ([15]; 2,4-D EHE 140 g ae/ha) of the same compound?
Answer: 0%

Question: What about the “% visual injury Obs” value ([15]; 140 g ae/ha alone, 20-22 d) of the same compound?
Answer: 0%

Question: What about the plant injury at 140 g/ha [16, 22] of the same compound?
Answer: 60%

Question: And the plant injury at 400 g/ha [16, 22]?
Answer: 75%

Question: What about the plant injury at 140 g/ha ([16]; read-out: % visual injury Obs) of the same compound?
Answer: 60%

Question: What about the plant injury at 140 g/ha ([16]; read-out: % visual injury, Obs) of the same compound?
Answer: 65%

Question: And the “% visual injury (Obs)” value [17, 23]?
Answer: 0%

Question: What about the “% visual injury Obs” value [17, 23] of the same compound?
Answer: 0%

Question: What about the “% visual injury (Obs)” value ([17]; spring barley (Hordeum vulgare)) of the same compound?
Answer: 10%

Question: And the “% visual injury (Obs)” value ([18]; 2,4-D EHE 400 g ae/ha)?
Answer: 60%

Question: What about the pest or weed control at 140 g/ha ([18]; read-out: % visual injury Obs, 140 g ae/ha alone, 20-22 d) of the same compound?
Answer: 35%

Question: And the pest or weed control at 140 g/ha ([18]; read-out: % visual injury, Obs, EPHHL, 140 g ae/ha)?
Answer: 5%

Question: And the “% visual injury (Obs)” value ([19]; 2,4-D EHE 140 g ae/ha)?
Answer: 35%

Question: What about the “% visual injury (Obs)” value ([19]; 2,4-D EHE 400 g ae/ha) of the same compound?
Answer: 65%

Question: And the pest or weed control at 140 g/ha ([19]; Viola tricolor, post-emergence, read-out: % visual injury Obs)?
Answer: 35%

Question: What about the pest or weed control at 140 g/ha [20] of the same compound?
Answer: 73%

Question: What about the “% visual injury (Obs)” value ([21]; 2,4-D EHE 400 g ae/ha) of the same compound?
Answer: 10%

Question: And the “% visual injury Obs” value ([21]; 140 g ae/ha alone, 20-22 d)?
Answer: 63%
